According to US20030181436A1, “Treatment for AIDS, HIV, and other related diseases and compounds for use therewith” (priority 2001, published 2003):

Legend:
Format in all cases: cell-based
HeLa CD4 LTR β-gal cells = experiment: Cytotoxicity for HeLa CD4 LTR β-gal cells
Protocol: (§1) At assay termination the assay plates were stained with the soluble tetrazolium-based dye MTS (CellTiter® Reagent, Promega) to determined cell viability and quantify compound toxicity. […] At termination of the assay 20 μL of MTS reagent was added per well. The wells were incubated for 4 h at 37° C., 5% CO2. Adhesive plate scalers were used in place of the lids, the sealed plate was inverted several times to mix the soluble formazan product and the plate was read spectrophotometrically at 490 nm with a 650 nm reference wavelength on a Molecular Devices Vmax plate reader.
This cell line represents one of 3 standard models for performing time of addition assays.

[1] = test system: TNFα induced ACH-2 cells (HIV IIIB provirus); experiment: ACH-2 latent infection assay, supernatant reverse transcriptase activity
Protocol: (§2) U1 and ACH-2 cells were obtained from the AIDS Research and Reference Reagent Program and maintained under standard culture conditions in RPMI 1640 supplemented with 10% fetal bovine serum (heat inactivated), supplemented with 2 mM […], 100U/ml penicillin and 100 μg/ml, streptomycin. U1 cells were derived from the histocytic leukemia cell line U937, and contain a single integrated copy (HIV IIIB) […] a cytokine and/or phorbol inducible provirus. ACH-2 cells are derived from the A3.01 T lymphoblastic cell line, and contain 2 copies of the HIV IIIB provirus, however only one is cytokine and/or phorbol inducible. Cultures were maintained in such a way as to ensure exponential growth of the populations. At the time of the assay, cells were collected by centrifugation and counted by hemacytometer. If cell viability by Trypan Blue dye exclusion was less than 70% the assay was terminated. The cells were adjusted to 5×10^4 cells/mL and 100 μL, placed in 96 well plates with 100 μL media containing a final concentration of […] TNFα and the test compound. Cultures were incubated for 3 days and supernatants harvested. Compound toxicity was determined by MTS dye reduction. Virus expression was measured by supernatant reverse transcriptasc activity.
Reverse transcriptase activity was measured in cell-free supernatants. Tritiated thymidine triphosphate (NEN) (TTP) was resuspended in distilled H2O at 5 Ci/mL. Poly rA and oligo dT were prepared as a stock solution which was kept at −20° C. The RT reaction buffer was prepared fresh on a daily basis and consists of 125 μL 1.0 M EGTA, 125 μL dH2O, 110 μL 10% SDS, 50 μL 1.0 M Tris (pH 7.4), 50 μL, 1.0 M DTT, and 40 μL 1.0 M MgCl2. These three solutions were mixed together in a ratio of 2 parts TTP, 1 part poly rA:oligo dT, and 1 part reaction buffer. Ten microliters of this reaction mixture was placed in a round bottom microtiter plate and 15 μL of virus containing supernatant was added and mixed. The plate was incubated at 37° C. in a water bath with a solid support to prevent submersion of the plate and incubated for 60 minutes. Following reaction, the reaction volume was spotted onto pieces of DE81 paper, washed 5 times for 5 minutes each in a 5% sodium phosphate buffer, 2 times for 1 minute each in distilled water, 2 times for 1 minute each in 70% ethanol, and then dried. Opti-Fluor O was added to each sample and incorporated radioactivity was quantitated utilizing a Wallac 1450 Microbetaplus liquid scintillation counter.

HIV = experiment: HeLa CD4 LTR β-gal time of addition assay; settings: single round, high M.O.I.
Text: This time of addition assay measures reproducible events from initial virus binding to the trans activation of the β-galactosidase reporter by newly produced Tat protein. This is a single round of infection assay and is thus “cleaner” and more “precise” than a multi-round time of addition assay. […] Since it is hypothesized that the K and Z compounds work by interfering with virus transcription the later possibility seems more likely. Thus the use of a time of addition assay with PBMCs was utilized.

U1 cells = experiment: U1 assay, compound toxicity by MTS dye reduction; parameters: TC50: unit not given here
Protocol: as §1, §2

Zinc Iodiscorbate [Compound Z]
TOXICITY VALUES (Cell Titer) MEAN (HeLa CD4 LTR β-gal cells; 3.2 μG/mL): 1.156 O. D. | TOXICITY VALUES (Cell Titer) MEAN (HeLa CD4 LTR β-gal cells; 10 μG/mL): 1.176 O. D. | % CC (HeLa CD4 LTR β-gal cells; 100 μG/mL): 22.6% | TOXICITY VALUES (Cell Titer) MEAN (HeLa CD4 LTR β-gal cells; 100 μG/mL): 0.259 O. D. | % CC (HeLa CD4 LTR β-gal cells; 320 μG/mL): 18.5% | TOXICITY VALUES (Cell Titer) MEAN (HeLa CD4 LTR β-gal cells; 320 μG/mL): 0.212 O. D. | % CC (HeLa CD4 LTR β-gal cells; 1000 μG/mL): 18.2% | TOXICITY VALUES (Cell Titer) MEAN (HeLa CD4 LTR β-gal cells; 1000 μG/mL): 0.208 O. D. | TC50 (HeLa CD4 LTR β-gal cells; HeLa CD4 LTR β-gal cells): 75 µg/mL | cytotoxic effects on the HeLa CD4 LTR β-gal cells (HeLa CD4 LTR β-gal cells; initial testing): no significant cytotoxic effects | activity in the ACH-2 assay [1]: inactive | % VC ([1]; 0.00063 μg/ml, exp 2): 96.4% | RT ACTIVITY MEAN ([1]; 0.00063 μg/ml, exp 2): 18594 cpm | % VC ([1]; 0.002 μg/ml, exp 2): 106.4% | RT ACTIVITY MEAN ([1]; 0.002 μg/ml, exp 2): 20516 cpm | % VC ([1]; 0.00625 μg/ml, exp 2): 100.6% | RT ACTIVITY MEAN ([1]; 0.00625 μg/ml, exp 2): 19411 cpm | % VC ([1]; 0.02 μg/ml, exp 2): 116.0% | RT ACTIVITY MEAN ([1]; 0.02 μg/ml, exp 2): 22382 cpm | % VC ([1]; 0.0625 μg/ml, exp 2): 111.6% | RT ACTIVITY MEAN ([1]; 0.0625 μg/ml, exp 2): 21532 cpm | % VC ([1]; 0.2 μg/ml, exp 2): 114.0% | RT ACTIVITY MEAN ([1]; 0.2 μg/ml, exp 2): 21983 cpm | % VC ([1]; 0.625 μg/ml, exp 2): 104.2% | RT ACTIVITY MEAN ([1]; 0.625 μg/ml, exp 2): 20108 cpm | % VC ([1]; 2 μg/ml, exp 2): 104.5% | RT ACTIVITY MEAN ([1]; 2 μg/ml, exp 2): 20151 cpm | % VC ([1]; 6.25 μg/ml, exp 2): 60.8% | RT ACTIVITY MEAN ([1]; 6.25 μg/ml, exp 2): 11729 cpm | % VC ([1]; 20 μg/ml, exp 2): 5.1% | RT ACTIVITY MEAN ([1]; 20 μg/ml, exp 2): 982 cpm | % VC ([1]; 62.5 μg/ml, exp 2): 0.83% | RT ACTIVITY MEAN ([1]; 62.5 μg/ml, exp 2): 160 cpm | % VC ([1]; 200 μg/ml, exp 2): 0.41% | RT ACTIVITY MEAN ([1]; 200 μg/ml, exp 2): 80 cpm | % VC ([1]; 0.00063 μG/Ml, exp 1): 107.6% | RT ACTIVITY (cpm) MEAN ([1]; 0.00063 μG/Ml, exp 1): 71887 cpm | % VC ([1]; 0.002 μG/Ml [c9], exp 1): 107.8% | RT ACTIVITY (cpm) MEAN ([1]; 0.002 μG/Ml [c9], exp 1): 71981 cpm | % VC ([1]; 0.002 μG/Ml [c11], exp 1): 107.5% | RT ACTIVITY (cpm) MEAN ([1]; 0.002 μG/Ml [c11], exp 1): 71843 cpm | % VC ([1]; 0.00625 μG/Ml, exp 1): 93.3% | RT ACTIVITY (cpm) MEAN ([1]; 0.00625 μG/Ml, exp 1): 62338 cpm | % VC ([1]; 0.0625 μG/Ml, exp 1): 123.3% | RT ACTIVITY (cpm) MEAN ([1]; 0.0625 μG/Ml, exp 1): 82351 cpm | % VC ([1]; 0.2 μG/Ml, exp 1): 116.0% | RT ACTIVITY (cpm) MEAN ([1]; 0.2 μG/Ml, exp 1): 77521 cpm | % VC ([1]; 0.625 μG/Ml, exp 1): 118.9% | RT ACTIVITY (cpm) MEAN ([1]; 0.625 μG/Ml, exp 1): 79421 cpm | % VC ([1]; 2 μG/Ml, exp 1): 114.0% | RT ACTIVITY (cpm) MEAN ([1]; 2 μG/Ml, exp 1): 76125 cpm | % VC ([1]; 6.25 μG/Ml, exp 1): 112.7% | RT ACTIVITY (cpm) MEAN ([1]; 6.25 μG/Ml, exp 1): 75319 cpm | % VC ([1]; 20 μG/Ml, exp 1): 107.9% | RT ACTIVITY (cpm) MEAN ([1]; 20 μG/Ml, exp 1): 72063 cpm | % VC ([1]; 62.5 μG/Ml, exp 1): 3.27% | RT ACTIVITY (cpm) MEAN ([1]; 62.5 μG/Ml, exp 1): 2186 cpm | % VC ([1]; 200 μG/Ml, exp 1): 2.23% | RT ACTIVITY (cpm) MEAN ([1]; 200 μG/Ml, exp 1): 1487 cpm | IC50 ([1]; ACH2, exp 1, Table 2): IC50 (μG/Ml) = 43.51 | IC50 ([1]; ACH-2, experiment 1, Table 1): 43.5 µg/mL | IC50 ([1]; ACH-2, experiment 2, Table 1): 8.9 µg/mL | ACH2 EC50 ([1]; exp 2, Table 4): 8.9 µg/mL | inhibition of HIV replication (HIV): failed to inhibit | TOXICITY VALUES MEAN (U1 cells; 0.00063 ug/ml, exp 2): 1.055 O. D. | % CC (U1 cells; 0.002 ug/ml, exp 2): 90.5% | TOXICITY VALUES MEAN (U1 cells; 0.002 ug/ml, exp 2): 0.963 O. D. | TOXICITY VALUES MEAN (U1 cells; 0.00625 ug/ml, exp 2): 1.103 O. D. | TOXICITY VALUES MEAN (U1 cells; 0.02 ug/ml, exp 2): 1.064 O. D. | TOXICITY VALUES MEAN (U1 cells; 0.0625 ug/ml, exp 2): 1.072 O. D. | TOXICITY VALUES MEAN (U1 cells; 0.2 ug/ml, exp 2): 1.031 O. D. | TOXICITY VALUES (MTS) MEAN (U1 cells; 0.625 ug/ml, exp 1): 1.791 O. D. | % CC (U1 cells; 0.625 ug/ml, exp 2): 81.6% | TOXICITY VALUES MEAN (U1 cells; 0.625 ug/ml, exp 2): 0.868 O. D. | TOXICITY VALUES (MTS) MEAN (U1 cells; 2 ug/ml, exp 1): 1.732 O. D. | % CC (U1 cells; 2 ug/ml, exp 2): 82.3% | TOXICITY VALUES MEAN (U1 cells; 2 ug/ml, exp 2): 0.876 O. D. | % CC (U1 cells; 6.25 ug/ml [c2], exp 2): 35.3% | TOXICITY VALUES MEAN (U1 cells; 6.25 ug/ml [c2], exp 2): 0.376 O. D. | TOXICITY VALUES MEAN (U1 cells; 6.25 ug/ml [c4], exp 2): 1.118 O. D. | TOXICITY VALUES (MTS) MEAN (U1 cells; 6.25 ug/ml, exp 1): 1.649 O. D. | % CC (U1 cells; 20 ug/ml, exp 1): 91.7% | TOXICITY VALUES (MTS) MEAN (U1 cells; 20 ug/ml, exp 1): 1.625 O. D. | % CC (U1 cells; 20 ug/ml, exp 2): 61.7% | TOXICITY VALUES MEAN (U1 cells; 20 ug/ml, exp 2): 0.658 O. D. | % CC (U1 cells; 62.5 ug/ml, exp 1): 77.8% | TOXICITY VALUES (MTS) MEAN (U1 cells; 62.5 ug/ml, exp 1): 1.379 O. D. | % CC (U1 cells; 200 ug/ml, exp 1): 3.6% | TOXICITY VALUES (MTS) MEAN (U1 cells; 200 ug/ml, exp 1): 0.063 O. D. | % CC (U1 cells; 200 ug/ml, exp 2): 7.1% | TOXICITY VALUES MEAN (U1 cells; 200 ug/ml, exp 2): 0.076 O. D. | TC50 (U1 cells; U1, experiment 1, Table 1): 114 | TC50 (U1 cells; U1, experiment 2, Table 1): 39 | U1 TC50 (U1 cells; exp 2): 38.8 µg/mL | U1 TC50 (U1 cells; exp 2, listed as COMPOUND Z): TC50 (uglml) = 38.80 μg/ml
